Experimental data as given in PubChem BioAssay AID1918958 (Molecular Pharmacology Branch, DTP, NCI, 2023).

Tested on: NCI-H196 complex spheroid viability
Test: Anticancer human tumor NCI-H196 cell line growth inhibition [LSD1];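 also: spheroids exposed to agents for 7 days before readout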;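 as to viability, T/C: 100% = DMSO vehicle control viability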
Conditions: for IC50: curve of first compound; for viability, T/C: stronger effect = lower value
Summary of the method: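 Multicellular complex spheroids of tumor cells with human endothelial cells (HUVEC) and mesenchymal stem cells; the LSD1 inhibitor iadademstat was combined with standard-of-care or investigational agents. Top concentration at or near clinical Cmax, half-log dilutions; final DMSO ≤0.25%.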

[1] = second compound 0.1 µM, first compound 0.0316 µM
[2] = second compound 0.1 µM, first compound 0.1 µM
[3] = second compound 0.1 µM, first compound 0.316 µM
[4] = second compound 0.1 µM, first compound 1 µM
[5] = second compound 0.1 µM, first compound 3.16 µM
[6] = second compound 0.1 µM, first compound 10 µM
[7] = second compound 0.316 µM, first compound 0.0316 µM
[8] = second compound 0.316 µM, first compound 0.1 µM
[9] = second compound 0.316 µM, first compound 0.316 µM
[10] = second compound 0.316 µM, first compound 1 µM
[11] = second compound 0.316 µM, first compound 3.16 µM
[12] = second compound 0.316 µM, first compound 10 µM
[13] = second compound 1 µM, first compound 0.0316 µM
[14] = second compound 1 µM, first compound 0.1 µM
[15] = second compound 1 µM, first compound 0.316 µM
[16] = second compound 1 µM, first compound 1 µM
[17] = second compound 1 µM, first compound 3.16 µM
[18] = second compound 1 µM, first compound 10 µM
[19] = second compound 3.16 µM, first compound 0.0316 µM
[20] = second compound 3.16 µM, first compound 0.1 µM
[21] = second compound 3.16 µM, first compound 0.316 µM
[22] = second compound 3.16 µM, first compound 1 µM
[23] = second compound 3.16 µM, first compound 3.16 µM
[24] = second compound 3.16 µM, first compound 10 µM
[25] = second compound 10 µM, first compound 0.0316 µM
[26] = second compound 10 µM, first compound 0.1 µM
[27] = second compound 10 µM, first compound 0.316 µM
[28] = second compound 10 µM, first compound 1 µM
[29] = second compound 10 µM, first compound 3.16 µM
[30] = second compound 10 µM, first compound 10 µM
[31] = second compound 0.1 µM, first compound 0.00949 µM
[32] = second compound 0.1 µM, first compound 0.03 µM
[33] = second compound 0.1 µM, first compound 0.0949 µM
[34] = second compound 0.1 µM, first compound 0.3 µM
[35] = second compound 0.316 µM, first compound 0.00949 µM
[36] = second compound 0.316 µM, first compound 0.03 µM
[37] = second compound 0.316 µM, first compound 0.0949 µM
[38] = second compound 0.316 µM, first compound 0.3 µM
[39] = second compound 1 µM, first compound 0.00949 µM
[40] = second compound 1 µM, first compound 0.03 µM
[41] = second compound 1 µM, first compound 0.0949 µM
[42] = second compound 1 µM, first compound 0.3 µM
[43] = second compound 3.16 µM, first compound 0.00949 µM
[44] = second compound 3.16 µM, first compound 0.03 µM
[45] = second compound 3.16 µM, first compound 0.0949 µM
[46] = second compound 3.16 µM, first compound 0.3 µM
[47] = second compound 10 µM, first compound 0.00949 µM
[48] = second compound 10 µM, first compound 0.03 µM
[49] = second compound 10 µM, first compound 0.0949 µM
[50] = second compound 10 µM, first compound 0.3 µM

`CC1(C)CCC(CN2CCN(c3ccc(C(=O)NS(=O)(=O)c4ccc(NCC5CCOCC5)c([N+](=O)[O-])c4)c(Oc4cnc5[nH]ccc5c4)c3)CC2)=C(c2ccc(Cl)cc2)C1` + NC1CCC(NC2CC2c2ccccc2)CC1 showed an IC50 (second compound 0.1 µM) of 5.15 µM, an IC50 (second compound 0.316 µM) of 5.19 µM and an IC50 (second compound 1 µM) of 5.88 µM. For the same molecule, the IC50 (second compound 3.16 µM) was 5.6 µM, the IC50 (second compound 10 µM) was 6.02 µM and the viability, T/C [1] was 98.8%. The viability, T/C [2] was 104%, the viability, T/C [3] was 96.8% and the viability, T/C [4] was 97.8%. It also gave a viability, T/C [5] of 76%, a viability, T/C [6] of 14.6% and a viability, T/C [7] of 107%. It also gave a viability, T/C [8] of 106%, a viability, T/C [9] of 98% and a viability, T/C [10] of 98%. For the same molecule, the viability, T/C [11] was 78.3%, the viability, T/C [12] was 13.2% and the viability, T/C [13] was 101%. For the same molecule, the viability, T/C [14] was 103%, the viability, T/C [15] was 101% and the viability, T/C [16] was 106%. It also gave a viability, T/C [17] of 89.1%, a viability, T/C [18] of 16.5% and a viability, T/C [19] of 109%. The viability, T/C [20] was 104%, the viability, T/C [21] was 95.4% and the viability, T/C [22] was 102%. It also gave a viability, T/C [23] of 82.8%, a viability, T/C [24] of 16.6% and a viability, T/C [25] of 104%. For the same molecule, the viability, T/C [26] was 101%, the viability, T/C [27] was 99.2% and the viability, T/C [28] was 103%. The viability, T/C [29] was 86.4% and the viability, T/C [30] was 21%.

Work on `CC1COCCN1c1cc(C2(S(C)(=N)=O)CC2)nc(-c2ccnc3[nH]ccc23)n1` (stereo not given) + NC1CCC(NC2CC2c2ccccc2)CC1 yielded an IC50 (second compound 0.1 µM) greater than 10 µM, an IC50 (second compound 0.316 µM) greater than 10 µM and an IC50 (second compound 1 µM) greater than 10 µM. For the same molecule, the IC50 (second compound 3.16 µM) was greater than 10 µM, the IC50 (second compound 10 µM) was greater than 10 µM and the viability, T/C [1] was 95.7%. For the same molecule, the viability, T/C [2] was 100%, the viability, T/C [3] was 99% and the viability, T/C [4] was 87.5%. The viability, T/C [5] was 89%, the viability, T/C [6] was 67.4% and the viability, T/C [7] was 101%. It also gave a viability, T/C [8] of 99.5%, a viability, T/C [9] of 110% and a viability, T/C [10] of 89.5%. The viability, T/C [11] was 88.3%, the viability, T/C [12] was 70.8% and the viability, T/C [13] was 101%. The viability, T/C [14] was 96.4%, the viability, T/C [15] was 95.5% and the viability, T/C [16] was 85.8%. For the same molecule, the viability, T/C [17] was 79.5%, the viability, T/C [18] was 72.2% and the viability, T/C [19] was 97.4%. It also gave a viability, T/C [20] of 100%, a viability, T/C [21] of 93.7% and a viability, T/C [22] of 85.5%. The viability, T/C [23] was 79.5%, the viability, T/C [24] was 70.2% and the viability, T/C [25] was 96.9%. For the same molecule, the viability, T/C [26] was 108%, the viability, T/C [27] was 100% and the viability, T/C [28] was 98%. The viability, T/C [29] was 77.3% and the viability, T/C [30] was 68.2%.

In the case of `CCN(c1cc(-c2ccc(CN3CCOCC3)cc2)cc(C(=O)NCc2c(C)cc(C)[nH]c2=O)c1C)C1CCOCC1` + NC1CCC(NC2CC2c2ccccc2)CC1, the IC50 (second compound 0.1 µM) is reported as greater than 3 µM, the IC50 (second compound 0.316 µM) is reported as greater than 3 µM and the IC50 (second compound 1 µM) is reported as greater than 3 µM. It also gave an IC50 (second compound 3.16 µM) greater than 3 µM, an IC50 (second compound 10 µM) greater than 3 µM and a viability, T/C [31] of 100%. It also gave a viability, T/C [32] of 95.6%, a viability, T/C [33] of 93.1% and a viability, T/C [34] of 103%. The viability, T/C (second compound 0.1 µM, first compound 0.949 µM) was 96.4%, the viability, T/C (second compound 0.1 µM, first compound 3 µM) was 101% and the viability, T/C [35] was 99.5%. It also gave a viability, T/C [36] of 93.8%, a viability, T/C [37] of 101% and a viability, T/C [38] of 100%. For the same molecule, the viability, T/C (second compound 0.316 µM, first compound 0.949 µM) was 104%, the viability, T/C (second compound 0.316 µM, first compound 3 µM) was 110% and the viability, T/C [39] was 92.5%. It also gave a viability, T/C [40] of 93%, a viability, T/C [41] of 98.7% and a viability, T/C [42] of 95.2%. The viability, T/C (second compound 1 µM, first compound 0.949 µM) was 99.6%, the viability, T/C (second compound 1 µM, first compound 3 µM) was 103% and the viability, T/C [43] was 87.8%. For the same molecule, the viability, T/C [44] was 91.4%, the viability, T/C [45] was 95.3% and the viability, T/C [46] was 95.6%. The viability, T/C (second compound 3.16 µM, first compound 0.949 µM) was 91.6%, the viability, T/C (second compound 3.16 µM, first compound 3 µM) was 99.9% and the viability, T/C [47] was 104%. It also gave a viability, T/C [48] of 93.3%, a viability, T/C [49] of 94.6% and a viability, T/C [50] of 105%. The viability, T/C (second compound 10 µM, first compound 0.949 µM) was 86.7% and the viability, T/C (second compound 10 µM, first compound 3 µM) was 101%.

With `Nc1ncn(C2CC(O)C(CO)S2)c(=O)n1` (stereo not given) + NC1CCC(NC2CC2c2ccccc2)CC1 the IC50 (second compound 0.1 µM) was greater than 0.3 µM, the IC50 (second compound 0.316 µM) was greater than 0.3 µM and the IC50 (second compound 1 µM) was greater than 0.3 µM. For the same molecule, the IC50 (second compound 3.16 µM) was greater than 0.3 µM, the IC50 (second compound 10 µM) was greater than 0.3 µM and the viability, T/C (second compound 0.1 µM, first compound 0.000949 µM) was 112%. The viability, T/C (second compound 0.1 µM, first compound 0.003 µM) was 104%, the viability, T/C [31] was 121% and the viability, T/C [32] was 118%. The viability, T/C [33] was 122%, the viability, T/C [34] was 118% and the viability, T/C (second compound 0.316 µM, first compound 0.000949 µM) was 103%. The viability, T/C (second compound 0.316 µM, first compound 0.003 µM) was 102%, the viability, T/C [35] was 108% and the viability, T/C [36] was 114%. For the same molecule, the viability, T/C [37] was 112%, the viability, T/C [38] was 127% and the viability, T/C (second compound 1 µM, first compound 0.000949 µM) was 93.7%. It also gave a viability, T/C (second compound 1 µM, first compound 0.003 µM) of 105%, a viability, T/C [39] of 113% and a viability, T/C [40] of 109%. For the same molecule, the viability, T/C [41] was 109%, the viability, T/C [42] was 110% and the viability, T/C (second compound 3.16 µM, first compound 0.000949 µM) was 96.4%. For the same molecule, the viability, T/C (second compound 3.16 µM, first compound 0.003 µM) was 106%, the viability, T/C [43] was 105% and the viability, T/C [44] was 124%. For the same molecule, the viability, T/C [45] was 107%, the viability, T/C [46] was 108% and the viability, T/C (second compound 10 µM, first compound 0.000949 µM) was 108%. The viability, T/C (second compound 10 µM, first compound 0.003 µM) was 105%, the viability, T/C [47] was 113% and the viability, T/C [48] was 118%. For the same molecule, the viability, T/C [49] was 111% and the viability, T/C [50] was 106%.
